# Values of other authors in article PMC11133798, “Vosoritide treatment for children with hypochondroplasia: a phase 2 trial” (eClinicalMedicine, 2024).
# No end group written: not given here.
# What was measured:
# [1] = system: children with hypochondroplasia; details: cited from earlier work
# Source text: As there are no currently approved medications for hypochondroplasia, recombinant human growth hormone (rhGH) has been used off-label in patients with hypochondroplasia with variable efficacy. To date, there are no controlled trials of rhGH in children with hypochondroplasia. […] However, growth velocity slowed substantially after the first year resulting in a total increase in height ...
# L613V/+ mice = details: by 2 weeks of treatment; catch up began after 1 week; ref 26 (protocol list); cited from earlier work
# Source text: They then proceeded to give these mice a MEK inhibitor.
# [2] = system: mouse model with Braf mutation (p.Q241R); details: CNP administration; ref 28 (protocol list); cited from earlier work
# [3] = system: rat chondrosarcoma cell lines, NPR2 heterozygous knock out; details: ref 23 (protocol list); cited from earlier work
# Source text: (§1) Our group identified pathogenic mutations in NPR2 in ~2% of ~400 patients presenting with short stature 22. The degree of short stature ...
# [4] = system: rat chondrosarcoma cell lines, NPR2 homozygous knock out; details: ref 23 (protocol list); cited from earlier work
# Source text: as §1
# rat chondrosarcoma cells = details: CNP treatment; ref 36 (protocol list); cited from earlier work
# Source text: Individuals with heterozygous defects in Aggrecan present with dominantly inherited short stature often with advanced bone ages and premature growth cessation 32,33.
# [5] = system: mice deficient in Nf1 in type II collagen producing cells; details: daily injections of CNP; ref 27 (protocol list); cited from earlier work
# [6] = meta-analysis of 7 studies, 113 children with hypochondroplasia
compound,measurement,setting,value
rhGH: recombinant human growth hormone used off-label in hypochondroplasia,Body disproportion,"[1]; higher dose of rhGH, after three years of treatment",significant worsening of body disproportion
same,Mean first year increase in height SDS,[1]; [6],0.41 SD
same,Total increase in height after 3 years,[1]; [6],0.61 SD
O=C(NOC[C@H](O)CO)c1ccc(F)c(F)c1Nc1ccc(I)cc1F [PD0325901],Body length,L613V/+ mice,the same length as untreated WT mice
"CNP: endogenous C-type natriuretic peptide, ligand of NPR-B (GLSKGCFGLKLDRIGSMSGLGC; ends and bridges not checked; cysteine pairing not given here; UniProt P23582 105-126, looked up)",Body length,[2],increases in body length
same,CNP concentration generating cGMP sufficient to activate downstream protein kinase G signaling,[3],> 0.163 nM
same,cGMP response to CNP,[4],absolutely no
same,Extracellular matrix after FGF2 administration,rat chondrosarcoma cells,rescue the loss of extracellular matrix
same,ERK phosphorylation and stature,[5],decreased ERK phosphorylation and corrected the short stature
